These are literature values, as cited in patent US11446408B2, “Composition and methods for antimicrobial articles” (priority 2011, dated 2022).

Some test systems named below: enteric bacteria; enteric viruses; amoebic cysts.
What all share (settings): 10 minutes at 25 degrees Celsius

Take `II` [iodine]: the “iodine sufficient to kill enteric bacteria” value in the series with enteric bacteria is listed as 0.2 PPM. In addition, in the series with enteric viruses, the “iodine sufficient to kill enteric viruses” value is 14.6 PPM. The “iodine sufficient to kill amoebic cysts” value in the series on amoebic cysts is reported as 3.5 PPM.
